Experimental data reported in patent publication US10487345B2, “Methods for making and using polynucleotide sequences in the synthesis of alkaloid compounds” (priority 2014, dated 2019).

Tests used:
[1] = target: GFLOMT6 (Glaucium flavum, UniProt A0A0H4IRD2); experiment: Standard OMT assay, substrate specificity of recombinant GFLOMT6; assay type: biochemical; settings: for conversion of substrate by GFLOMT6 / acceptance as substrate by GFLOMT6 (in words): standard OMT assay; for Substrate specificity, enzyme GFLOMT6: substrate conversion in the standard OMT assay (percent)
Excerpt: (§1) Full-length cDNAs for the seven GFLOMT candidates (see: Example 6) were cloned into the pRSETA expression vector with an N-terminal His_tag translational fusion and expressed in E. coli. Recombinant GFLOMTs were purified from total protein extracts using a cobalt-affinity resin.

[2] = target: GFLOMT1 (Glaucium flavum, UniProt A0A0H4IRD0); experiment: Standard OMT assay, substrate specificity of recombinant GFLOMT1; assay type: biochemical; settings: for conversion of substrate by GFLOMT1: standard OMT assay, in the presence of SAM; for Substrate specificity, enzyme GFLOMT1: substrate conversion in the standard OMT assay in the presence of SAM (percent)
Excerpt: as §1

[3] = tested on: GFLOMT7; experiment: Standard OMT assay, substrate specificity of recombinant GFLOMT7; assay type: biochemical, Glaucium flavum; settings: for conversion of substrate by GFLOMT7: standard OMT assay; for Substrate specificity, enzyme GFLOMT7: substrate conversion in the standard OMT assay (percent)
Excerpt: as §1

[4] = target: T1, GFLOMT2 (Glaucium flavum, UniProt A0A0H4ILZ3); experiment: Standard OMT assay, substrate specificity of recombinant GFLOMT2; assay type: biochemical; settings: for conversion of substrate by GFLOMT2: standard OMT assay; for Substrate specificity, enzyme GFLOMT2: substrate conversion in the standard OMT assay (percent)
T1 sequence (A0A0H4ILZ3 1-348): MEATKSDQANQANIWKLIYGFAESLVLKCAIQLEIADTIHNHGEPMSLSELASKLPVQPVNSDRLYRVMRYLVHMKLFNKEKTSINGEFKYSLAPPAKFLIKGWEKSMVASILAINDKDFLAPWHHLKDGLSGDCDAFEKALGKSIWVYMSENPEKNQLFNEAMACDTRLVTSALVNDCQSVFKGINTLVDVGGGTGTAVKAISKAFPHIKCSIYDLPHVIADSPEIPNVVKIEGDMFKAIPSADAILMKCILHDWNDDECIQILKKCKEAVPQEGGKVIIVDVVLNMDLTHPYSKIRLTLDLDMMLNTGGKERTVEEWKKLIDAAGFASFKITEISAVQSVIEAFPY
Excerpt: as §1

[5] = target: T1, GFLOMT2; settings: read-out: Km of GFLOMT2 for substrate; preferred substrate yielding single reaction product

Row | Structure (SMILES) | conversion of substrate by GFLOMT6 [1] [%] | Substrate specificity, enzyme GFLOMT6 [1] | conversion of substrate by GFLOMT1 [2] [%] | Substrate specificity, enzyme GFLOMT1 [2] | conversion of substrate by GFLOMT7 [3] [%] | Substrate specificity, enzyme GFLOMT7 [3] | conversion of substrate by GFLOMT2 [4] [%] | Substrate specificity, enzyme GFLOMT2 [4] | Km [5] [µM] | acceptance as substrate by GFLOMT6 (in words) [1]
1 | COc1cc2c(cc1O)C1Cc3ccc(OC)c(O)c3CN1CC2 (racemic) [(R,S)-Scoulerine, Scoulerine] | 100 | 100 | 32 | 32 | 12 | 12 | 75 | 75 |  | 
2 | Oc1ccc(CC2NCCc3cc(O)c(O)cc32)cc1O (racemic) [(R,S)-Norlaudanosoline, Norlaudanosoline] |  |  | 96 | 96 |  |  | 100 | 100 | 15 | did not accept
3 | COc1ccc(C[C@@H]2NCCc3cc(OC)c(O)cc32)cc1O (racemic) [(R,S)-Norreticuline, Norreticuline] | 36 | 36 |  |  |  |  |  |  |  | 
4 | COc1cc2c(cc1O)[C@@H]1Cc3ccc(OC)c(OC)c3CN1CC2 (racemic) [(R,S)-Tetrahydrocolubamine, Tetrahydrocolumbamine] | 90 | 91 | 19 | 19 | 8 | 8 | 32 | 32 |  | 
5 | COc1ccc(C[C@H]2c3cc(O)c(OC)cc3CCN2C)cc1O [(S)-Reticuline, Reticuline] | 97 | 97 | 6 | 6 |  |  | 22 | 22 |  | 
6 | COc1cc2c(cc1O)C(Cc1ccc(O)c(O)c1)NCC2 (racemic) [(R,S)-6-O-Methylnorlaudanosoline, 6-O-Methylnorlaudanosoline] |  |  | 87 | 87 |  |  | 1 | 1 |  | did not accept
7 | COc1cc2c(cc1O)C(Cc1ccc(O)c(O)c1)N(C)CC2 (racemic) [(R,S)-6-O-Methyllaudanosoline, 6-O-Methyllaudanosoline] | 23 | 23 | 68 | 68 |  |  | 14 | 14 |  | 
